# Data from patent US7803813B2, “Substituted 2-carbonylamino-6-piperidinaminopyridines and substituted 1-carbonylamino-3-piperidinaminobenzenes as 5-HT1F agonists” (Eli Lilly and Company, priority 2003, dated 2010).
# Counter-ions that a name gives are not always drawn.
# Assays:
# rabbit saphenous vein = assay: Rabbit saphenous vein contraction
# Method: Bend the tips of two 30-gauge stainless steel hypodermic needles into an L-shape and slip them into the lumen of the polyethylene tubing. Gently push vein tissue from the cannula onto the needles. Separate the needles and attach the lower needle with thread to a stationary glass rod and the upper needle with thread to a force transducer (Statham UC-3). Mount the tissues in organ baths containing 10 mL of modified Krebs' solution. Maintain tissue bath solutions at 37° C. and […] […] Apply an initial optimum resting force of 4 grams to the vein tissue. Record isometric contractions as changes in grams of force on a Beckman Dynograph with Statham UC-3 transducers and microscale accessory attachments. […] Flush the bath, allow the tissue to re-equilibrate under a 4 gram force, add test compound and record the force of contraction. Add additional compound to achieve the next concentration in a range of compound concentrations to generate cumulative agonist concentration-response curves for each test compound. Tissues can be used to generate up to two agonist concentration-response curves. […] Two important parameters can be measured with this vasoconstriction assay, saphenous vein contraction (EC50) and maximal contraction as a percentage of the maximal KCl response (%max KCl).
SMILES,melting point,further results
Cc1ccccc1C(=O)Nc1cccc(N(C)C2CCN(C)CC2)c1.Cl,82.4 °C,–
CN1CCC(N(C)c2cccc(NC(=O)c3ccccc3Br)c2)CC1.Cl.Cl,196 to 197 °C,–
CN1CCC(Nc2cccc(NC(=O)c3ccc(F)cc3F)c2)CC1.Cl.Cl,262 °C (dec.),–
CN1CCC(N(C)c2cccc(NC(=O)c3c(F)cccc3Cl)c2)CC1.Cl.Cl,214 to 217 °C,–
CCCN1CCC(N(C)c2cccc(NC(=O)c3ccc(F)cc3)n2)CC1.Cl,84.7 °C,–
CN1CCC(Nc2cccc(NC(=O)c3ccccc3Br)c2)CC1.Cl.Cl,192 to 193 °C,–
CN(c1cccc(NC(=O)c2ccc(F)cc2Cl)n1)C1CCNCC1.Cl,152.1 °C,–
CCC(=O)Nc1cccc(N(C)C2CCN(C)CC2)n1.Cl (hydrate or solvate),216 to 218 °C,–
CN1CCC(N(C)c2cccc(NC(=O)c3ccc(F)cc3)c2)CC1.Cl,76.1 °C,–
CN1CCC(N(C)c2cc(F)cc(NC(=O)c3ccc(F)cc3F)c2)CC1 (as salt: hydrochloric acid salt),175 °C,–
CN1CCC(Nc2cccc(NC(=O)c3ccc(F)c(F)c3F)n2)CC1.Cl,231.4 °C (dec.),–
CCCN1CCC(N(C)c2cccc(NC(=O)c3ccc(F)cc3Cl)n2)CC1.Cl,258 °C (dec.),–
CN1CCC(Nc2cccc(NC(=O)c3c(F)cccc3Cl)c2)CC1.Cl.Cl,192 to 194 °C,–
CCN1CCC(N(C)c2cccc(NC(=O)c3ccc(F)cc3Cl)n2)CC1.Cl,132.9 °C,–
Cl.Cl.O=C(Nc1cccc(NC2CCNCC2)c1)c1ccc(F)cc1Cl,255 to 257 °C,–
CN1CCC(N(C)c2cccc(NC(=O)c3c(F)cc(F)cc3F)c2)CC1.Cl.Cl,199 to 200 °C,–
CC(C)n1cc(CCN2CCC(N(C)c3cccc(NC(=O)c4ccc(F)cc4Cl)n3)CC2)cn1.Cl,96.7 °C,–
CN1CCC(Nc2cccc(NC(=O)c3ccc(F)cc3C(F)(F)F)n2)CC1.Cl,84.9 °C,–
CN1CCC(Nc2cccc(NC(=O)c3ccccc3Cl)c2)CC1.Cl.Cl,206 to 208 °C,–
CCN1CCC(N(C)c2cccc(NC(=O)c3ccc(F)cc3)n2)CC1.Cl,75.6 °C,–
CNS(=O)(=O)Cc1ccc2[nH]cc(CCN(C)C)c2c1 [sumatriptan],–,corrected vasoconstriction EC50 (EC50 divided by %max KCl) (rabbit saphenous vein): 10.3 nM; EC50 (rabbit saphenous vein; Oryctolagus cuniculus): 660 nM
CN1CCC(N(C)c2cc(F)cc(NC(=O)c3ccc(F)cc3)c2)CC1 (as salt: hydrochloric acid salt),175 °C,–
CN1CCC(N(C)c2cccc(NC(=O)c3ccccc3Cl)n2)CC1.Cl (hydrate or solvate),90 to 92 °C,–
CN(c1cccc(NC(=O)c2ccc(F)cc2)n1)C1CCN(CC2CC2)CC1.Cl,81.6 °C,–
C[C@@H]1C[C@H](Nc2cccc(NC(=O)c3ccc(F)cc3Cl)c2)CCN1.Cl,182 to 185 °C,–
CN(c1cccc(NC(=O)c2ccc(F)cc2)n1)C1CCNCC1.Cl,152.4 °C,–
CN1CCC(Nc2cccc(NC(=O)c3ccc(F)cc3Cl)c2)CC1.Cl.Cl,180 °C,–
CN1CCC(Nc2cccc(NC(=O)c3ccccc3OC(F)(F)F)c2)CC1.Cl.Cl,159 to 162 °C,–

SMILES,melting point,further results
CN1CCC(N(C)c2cccc(NC(=O)c3ccc(F)cc3)n2)CC1.Cl (hydrate or solvate),250 to 252 °C,–
CN1CCC(N(C)c2cccc(NC(=O)c3ccc(F)cc3F)c2)CC1.Cl.Cl,165 to 168 °C,–
C[C@H]1C[C@@H](Nc2cccc(NC(=O)c3ccc(F)cc3Cl)c2)CCN1.Cl,202 °C (dec.),–
CN(c1cccc(NC(=O)c2ccc(F)cc2Cl)n1)C1CCN(CC2CC2)CC1.Cl,257.5 °C,–
CN1CCC(N(C)c2cc(F)cc(NC(=O)c3sccc3Br)c2)CC1 (as salt: hydrochloric acid salt),175 to 180 °C,–
CN1CCC(N(C)c2cccc(NC(=O)C3CCC3)n2)CC1.Cl (hydrate or solvate),258 to 260 °C,–
CN1CCC(N(C)c2cccc(NC(=O)c3ccco3)n2)CC1.Cl (hydrate or solvate),116 to 119 °C,–
CN1CCC(N(C)c2cc(F)cc(NC(=O)c3ccccc3Cl)c2)CC1 (as salt: hydrochloric acid salt) (hydrate or solvate),170 to 175 °C,–
CC(C)n1cc(CCN2CCC(N(C)c3cccc(NC(=O)c4ccc(F)cc4)n3)CC2)cn1.Cl,85.8 °C,–
CN1CCC(N(C)c2cccc(NC(=O)c3ccccc3OC(F)(F)F)n2)CC1.Cl (hydrate or solvate),102 to 104 °C,–
CN1CCC(N(C)c2cccc(NC(=O)c3ccc(F)cc3Cl)c2)CC1.Cl.Cl,172 °C,–
CN1CCC(N(C)c2cccc(NC(=O)c3cccs3)n2)CC1.Cl,126 to 128 °C,–
CN1CCC(N(C)c2cccc(NC(=O)c3c(F)cccc3F)n2)CC1.Cl (hydrate or solvate),308 °C (dec.),–
CN1CCC(N(C)c2cccc(NC(=O)C3CC3)n2)CC1.Cl (hydrate or solvate),258 to 260 °C,–
CN1CCC(N(C)c2cccc(NC(=O)c3ccccc3C(F)(F)F)c2)CC1.Cl,84.5 °C,–
CN1CCC(N(C(=O)C2CC2)c2cccc(NC(=O)c3ccc(F)cc3Cl)c2)CC1.Cl,133 to 136 °C,–
CN1CCC(Nc2cccc(NC(=O)c3c(F)cc(F)cc3F)c2)CC1.Cl.Cl,257 °C (dec.),–
CN1CCC(N(C)c2cccc(NC(=O)c3c(F)cc(F)cc3F)n2)CC1.Cl (hydrate or solvate),302 °C (dec.),–
CN1CCC(N(C)c2cccc(NC(=O)c3ccc(F)cc3Cl)n2)CC1.Cl (hydrate or solvate),229 to 231 °C,–
CN1CCC(N(C)c2cccc(NC(=O)c3ccncc3)n2)CC1.Cl (hydrate or solvate),274 to 277 °C,–
C[C@H]1C[C@@H](Nc2cccc(NC(=O)c3ccc(F)cc3Cl)c2)CCN1C.Cl,91 to 94 °C,–
CN1CCC(Nc2cccc(NC(=O)c3c(F)cccc3F)c2)CC1.Cl.Cl,198 °C (dec.),–
CN1CCC(N(C)c2cccc(NC(=O)C3CCCCC3)n2)CC1.Cl,250 to 252 °C,–
CN1CCC(N(C)c2cccc(NC(=O)c3ccc(F)cc3C(F)(F)F)n2)CC1.Cl (hydrate or solvate),100 to 102 °C,–
CN1CCC(N(C)c2cccc(NC(=O)c3c(Cl)cccc3Cl)c2)CC1.Cl,164.2 °C,–
CN1CCC(N(C)c2cccc(NC(=O)c3c(F)cccc3Cl)n2)CC1.Cl (hydrate or solvate),283 to 286 °C,–
C[C@@H]1C[C@H](Nc2cccc(NC(=O)c3ccc(F)cc3Cl)c2)CCN1C.Cl,159 to 162 °C,–
